# Paper PMC9090415, “Discovery of small molecule inhibitors of Plasmodium falciparum apicoplast DNA polymerase” (Journal of Enzyme Inhibition and Medicinal Chemistry, 2022)
# Molecular target: P. falciparum apicoplast DNA polymerase (Pf-apPOL) (Plasmodium falciparum, UniProt Q8ILY1)
# Assay: Fluorescence-based high-throughput DNA polymerase assay (molecular beacon), primary screen and dose-response;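 as to % inhibition ApPOL 90': test concentration in µM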;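 as to % inhibition apPOL 180': test concentration in µM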
# Type: biochemical
# Settings: for DNA Pol: 90 min, 10 µM
# How it was run: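 Single-point screening used 10 µM compound with 20 nM polymerase, 20 nM hairpin substrate and 6 µM dNTPs for 90 min at 25 °C. Confirmatory titrations (2.5–80 µM) followed fluorescence at three times, and IC50 was derived from a fit including a cooperativity term n.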
# Chain of P. falciparum apicoplast DNA polymerase (Pf-apPOL) (Q8ILY1 entry or part of it): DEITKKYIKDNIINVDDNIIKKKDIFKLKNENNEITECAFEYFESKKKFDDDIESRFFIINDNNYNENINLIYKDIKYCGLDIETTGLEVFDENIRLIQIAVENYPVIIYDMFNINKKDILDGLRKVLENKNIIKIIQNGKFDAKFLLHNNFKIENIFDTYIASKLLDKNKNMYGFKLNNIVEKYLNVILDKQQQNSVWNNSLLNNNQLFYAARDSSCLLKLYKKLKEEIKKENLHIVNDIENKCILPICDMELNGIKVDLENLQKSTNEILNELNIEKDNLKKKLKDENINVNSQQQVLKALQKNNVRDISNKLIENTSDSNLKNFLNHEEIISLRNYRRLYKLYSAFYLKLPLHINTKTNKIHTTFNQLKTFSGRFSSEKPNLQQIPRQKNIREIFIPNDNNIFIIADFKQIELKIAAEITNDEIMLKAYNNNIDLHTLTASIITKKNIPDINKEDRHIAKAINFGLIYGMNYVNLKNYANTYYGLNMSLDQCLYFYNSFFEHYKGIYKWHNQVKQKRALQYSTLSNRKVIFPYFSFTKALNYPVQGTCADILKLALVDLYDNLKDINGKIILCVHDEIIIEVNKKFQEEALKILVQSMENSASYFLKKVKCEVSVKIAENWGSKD
compound,measurement,setting,value
"COC(=O)c1sc(-c2ccc(C(C)(C)C)cc2)cc1NC(=O)CCC(=O)O [Molecule 87, COC(=O)c1sc(cc1NC(=O)CCC(=O)O)c1ccc(cc1)C(C)(C)C]",DNA Pol,'DNA Pol' of the 186 hits list (screen value),96
same,% inhibition Apo pol 10',"DRC-1, conc 2.5",19.7971%
same,% inhibition Apo pol 10',"DRC-1, conc 5",30.0237%
same,% inhibition Apo pol 10',"DRC-1, conc 10",55.209%
same,% inhibition Apo pol 10',"DRC-1, conc 20",85.0828%
same,% inhibition Apo pol 10',"DRC-1, conc 40",94.7696%
same,% inhibition Apo pol 10',"DRC-1, conc 80",96.2943%
same,% inhibition Apol 90',"DRC-1, 90', conc 2.5",13.7781%
same,% inhibition Apol 90',"DRC-1, 90', conc 5",20.5036%
same,% inhibition Apol 90',"DRC-1, 90', conc 10",48.04%
same,% inhibition Apol 90',"DRC-1, 90', conc 20",81.7697%
same,% inhibition Apol 90',"DRC-1, 90', conc 40",91.7617%
same,% inhibition Apol 90',"DRC-1, 90', conc 80",95.9877%
same,% inhibition apPOL 180',"DRC-1, 180', conc 2.5",10.0944%
same,% inhibition apPOL 180',"DRC-1, 180', conc 5",11.9548%
same,% inhibition apPOL 180',"DRC-1, 180', conc 10",36.7594%
same,% inhibition apPOL 180',"DRC-1, 180', conc 20",75.8676%
same,% inhibition apPOL 180',"DRC-1, 180', conc 40",89.861%
same,% inhibition apPOL 180',"DRC-1, 180', conc 80",95.0797%
same,% inhibition Apo pol 5',"DRC-2, conc 2.5",12%
same,% inhibition Apo pol 5',"DRC-2, conc 5",9%
same,% inhibition Apo pol 5',"DRC-2, conc 10",35%
same,% inhibition Apo pol 5',"DRC-2, conc 20",50%
same,% inhibition Apo pol 5',"DRC-2, conc 40",60%
same,% inhibition Apo pol 5',"DRC-2, conc 80",59%
same,% inhibition Apo pol 5',"DRC-2, concentration 5",9%
same,% inhibition Apol 40',"DRC-2, 40', conc 2.5",11%
same,% inhibition Apol 40',"DRC-2, 40', conc 5",9%
same,% inhibition Apol 40',"DRC-2, 40', conc 10",40%
same,% inhibition Apol 40',"DRC-2, 40', conc 20",61%
same,% inhibition Apol 40',"DRC-2, 40', conc 40",72%
same,% inhibition Apol 40',"DRC-2, 40', conc 80",72%
same,% inhibition Apol 40',"DRC-2, 40', concentration 5",9%
same,% inhibition Apol 40',"DRC-2, 40', concentration 40",72%
same,% inhibition Apol 40',"DRC-2, 40', concentration 80",72%
same,% inhibition ApPOL 90',"DRC-2, 90', conc 2.5",9%
same,% inhibition ApPOL 90',"DRC-2, 90', conc 5",7%
same,% inhibition ApPOL 90',"DRC-2, 90', conc 10",38%
same,% inhibition ApPOL 90',"DRC-2, 90', conc 20",62%
same,% inhibition ApPOL 90',"DRC-2, 90', conc 40",74%
same,% inhibition ApPOL 90',"DRC-2, 90', conc 80",75%
same,% inhibition ApPOL 90',"DRC-2, 90', concentration 2.5",9%
same,% inhibition apPOL 180',"DRC-2, 180', conc 2.5",6%
same,% inhibition apPOL 180',"DRC-2, 180', conc 5",4%
same,% inhibition apPOL 180',"DRC-2, 180', conc 10",32%
same,% inhibition apPOL 180',"DRC-2, 180', conc 20",57%
same,% inhibition apPOL 180',"DRC-2, 180', conc 40",72%
same,% inhibition apPOL 180',"DRC-2, 180', conc 80",73%
same,% inhibition apPOL 180',"DRC-2, 180', concentration 40",72%
same,DNA Pol,"primary screen value, ""DNA Pol""",96
COC(=O)c1sc(-c2ccc(C(C)(C)C)cc2)cc1NC(=O)CCC(=O)O [Molecule 87],IC50,"supplemental file 2, sheet IC50 nontoxic compounds, Pf-apPOL",8.86 µM
"Cc1cc(C)c2c(O)nc(SCC(=O)c3ccc(O)c(O)c3)nc2n1 [Molecule 88, Cc1cc(C)c2c(n1)nc(nc2O)SCC(=O)c1ccc(c(c1)O)O]",% inhibition Apo pol 10',"DRC-1, concentration 2.5",66.1048%
same,% inhibition Apo pol 10',"DRC-1, concentration 5",84.19%
same,% inhibition Apo pol 10',"DRC-1, concentration 10",90.4679%
same,% inhibition Apo pol 10',"DRC-1, concentration 20",96.9488%
same,% inhibition Apo pol 10',"DRC-1, concentration 40",98.8856%
same,% inhibition Apo pol 10',"DRC-1, concentration 80",98.1462%
same,% inhibition Apol 90',"DRC-1, 90', concentration 2.5",42.8406%
same,% inhibition Apol 90',"DRC-1, 90', concentration 5",64.0677%
same,% inhibition Apol 90',"DRC-1, 90', concentration 10",76.3822%
same,% inhibition Apol 90',"DRC-1, 90', concentration 20",90.5503%
same,% inhibition Apol 90',"DRC-1, 90', concentration 40",93.4235%
same,% inhibition Apol 90',"DRC-1, 90', concentration 80",90.6466%
same,% inhibition apPOL 180',"DRC-1, 180', concentration 2.5",28.0012%
same,% inhibition apPOL 180',"DRC-1, 180', concentration 5",48.1017%
same,% inhibition apPOL 180',"DRC-1, 180', concentration 10",62.9235%
same,% inhibition apPOL 180',"DRC-1, 180', concentration 20",84.8942%
same,% inhibition apPOL 180',"DRC-1, 180', concentration 40",86.2556%
same,% inhibition apPOL 180',"DRC-1, 180', concentration 80",82.2791%
same,% inhibition Apol 40',"DRC-2, 40', concentration 10 (unit not given)",63%
same,% inhibition Apol 40',"DRC-2, 40', concentration 20 (unit not given)",71%
same,% inhibition Apol 40',"DRC-2, 40', concentration 80 (unit not given)",54%
same,% inhibition ApPOL 90',"DRC-2, 90', concentration 10 (unit not given)",63%
same,% inhibition ApPOL 90',"DRC-2, 90', concentration 20 (unit not given)",71%
same,% inhibition ApPOL 90',"DRC-2, 90', concentration 40 (unit not given)",71%
same,% inhibition apPOL 180',"DRC-2, 180', concentration 10 (unit not given)",54%
same,% inhibition apPOL 180',"DRC-2, 180', concentration 20 (unit not given)",63%
same,% inhibition apPOL 180',"DRC-2, 180', concentration 40 (unit not given)",63%
same,% inhibition Apo pol 5',"DRC-2, concentration 2.5",35%
same,% inhibition Apo pol 5',"DRC-2, concentration 5",43%
same,% inhibition Apo pol 5',"DRC-2, concentration 10",50%
same,% inhibition Apo pol 5',"DRC-2, concentration 20",55%
same,% inhibition Apo pol 5',"DRC-2, concentration 40",58%
same,% inhibition Apo pol 5',"DRC-2, concentration 80",31%
same,% inhibition Apol 40',"DRC-2, 40', concentration 2.5",32%
same,% inhibition Apol 40',"DRC-2, 40', concentration 5",45%
same,% inhibition Apol 40',"DRC-2, 40', concentration 10",63%
same,% inhibition Apol 40',"DRC-2, 40', concentration 20",71%
same,% inhibition Apol 40',"DRC-2, 40', concentration 40",72%
same,% inhibition Apol 40',"DRC-2, 40', concentration 80",54%
same,% inhibition ApPOL 90',"DRC-2, 90', concentration 2.5",28%
same,% inhibition ApPOL 90',"DRC-2, 90', concentration 5",42%
same,% inhibition ApPOL 90',"DRC-2, 90', concentration 10",63%
same,% inhibition ApPOL 90',"DRC-2, 90', concentration 20",71%
same,% inhibition ApPOL 90',"DRC-2, 90', concentration 40",71%
same,% inhibition ApPOL 90',"DRC-2, 90', concentration 80",56%
same,% inhibition apPOL 180',"DRC-2, 180', concentration 2.5",18%
same,% inhibition apPOL 180',"DRC-2, 180', concentration 5",27%
same,% inhibition apPOL 180',"DRC-2, 180', concentration 10",54%
same,% inhibition apPOL 180',"DRC-2, 180', concentration 20",63%
same,% inhibition apPOL 180',"DRC-2, 180', concentration 40",63%
same,% inhibition apPOL 180',"DRC-2, 180', concentration 80",53%
same,DNA Pol,"primary screen value of the 186 hits, unit not given",85
same,DNA Pol,"primary screen value, head ""DNA Pol"", unit not given",85
